Results from PubChem BioAssay AID2305 (GlaxoSmithKline (GSK), 2010).
Several values for one entry are separate records, joined by “and”; a condition that tells them apart may be missing. Equal entries are not always repeated.

System: P. falciparum 3D7 growth, pLDH absorbance
Experiment: blood-stage malaria parasite growth potency – strain 3D7, dose response (AID 2305)

Row | SMILES | IC50
1 | O=c1ccc2ccc(F)c3c2n1CC3CN1CCC(NCc2cccc(-c3cccs3)c2)CC1 (stereo unspecified) | 830 nM
2 | Nc1cc2c(C3CCN(CC4CCN(C(=O)/C=C/c5ccc(Cl)c(Cl)c5)CC4)CC3)c[nH]c2cn1 | 970 nM
3 | COc1ccc(-c2cc3nc4c(c(NCCCn5ccnc5)n3n2)CCCC4)cc1 | 730 nM
4 | CN(C)CCCOc1ccc(CNCC(C)(C)c2nc(-c3ccc(Cl)c(O)c3)c(-c3ccncc3)[nH]2)cc1 | 710 nM
5 | CCOC(=O)C1=C(C)NC(Cn2ccnc2)=C(C(=O)OCC)C1c1ccc(C(C)(C)C)cc1 (stereo unspecified) | 810 nM
6 | O=c1cc(NCCCCNCc2cccc(C(F)(F)F)c2)[nH]c2ccccc12 | 790 nM
7 | COc1ccc(-c2nccc(NC(N)=NCc3ccccc3)n2)cc1 | 670 nM
8 | CC(CN1CCN(C)CC1)C(=O)Nc1cccc(-c2ccc(-c3nc4ccc(C(F)(F)F)cc4[nH]3)cc2)c1 (stereo unspecified) | 610 nM
9 | COc1ccc2nccc(N3CCC(SCCNCc4ccc5c(n4)NC(=O)CO5)C3)c2n1 (stereo unspecified) | 800 nM
10 | Cc1cccc2[nH]c(-c3ccc(-c4cccc(NC(=O)Nc5ccc(F)c(F)c5F)c4)cc3)nc12 | 340 nM
11 | COc1cccc(/C=C/C(=O)NC2CCC(CN3CCC(c4c[nH]c5ccccc45)CC3)CC2)c1 (stereo unspecified) | 830 nM and 770 nM
12 | CC(C)CNCc1ccc(-c2cccc(CN(CCN(C)C)C(=O)NCCc3ccccc3)c2)cc1 | 1060 nM
13 | Fc1ccc(-c2cc3ncnc(N4CCN(CCN5CCCC5)CC4)c3s2)cc1 | 740 nM
14 | O=C(Nc1cccc(Oc2ccccc2)c1)N[C@H]1CCN(Cc2ccc(OCCCN3CCCCC3)cc2)C1 | 720 nM
15 | CCCc1cc(Cc2cnc(N)nc2N)cc(CCC)c1OCCCC(=O)OCC | 50 nM
16 | CCN(CC)CCN(Cc1ccc(-c2ccc(C(F)(F)F)cc2)cc1)C(=O)Cn1c(CCc2c(F)ccc(F)c2F)nc(=O)c2ccccc21 | 240 nM
17 | Cc1noc(NC(=O)c2sc3ccccc3c2O)c1C | 850 nM
18 | CC(C)CCN1CCCN(Cc2cccc(NC(=O)c3ccc(Cl)c(Cl)c3)c2)CC1 | 1020 nM
19 | CC(C)N1CCC(Oc2ccc(CN3CCN(C(c4ccccc4)c4ccc(Cl)cc4)CC3)cc2)CC1 (stereo unspecified) | 940 nM
20 | COc1ccc(C2CCN(CCN3CCC(NC(=O)c4ccc(-c5cccc(C(F)(F)F)c5C(F)(F)F)cc4)CC3)CC2)c(OC)c1 | 420 nM
21 | O=S(=O)(NCCN1CCCC1)c1ccc(-c2cccc(CNC3Cc4ccccc4C3)c2)cc1F | 1020 nM
22 | O=C(Nc1ccc(OC2CCN(Cc3ccc(F)cc3)C2)c(Cl)c1)c1ccsc1 (stereo unspecified) | 540 nM
23 | CS(=O)(=O)c1ccc(CCNCc2ccc(-c3cccc(-c4nc5ccccc5[nH]4)c3)cc2)cc1 | 190 nM
24 | Cc1noc(C)c1-c1ccc2c(Nc3ccc(C#N)cc3)c(C(N)=O)cnc2c1 | 750 nM

Row | SMILES | IC50
25 | CC(C)N1CCN(C(CN2CCN(CCCOc3cccc4ccccc34)CC2)c2ccc(F)cc2)CC1 (stereo unspecified) | 880 nM
26 | Cc1ccccc1C1CCN(C2CCC(NC(=O)c3cncc(-c4ccccc4)c3)CC2)CC1 (stereo unspecified) | 930 nM
27 | CN(C)c1nc(NCc2ccccc2)nc(NN=Cc2cc([N+](=O)[O-])ccc2O)n1 | 690 nM
28 | CCNc1cc(C(=O)N[C@@H](Cc2ccccc2)[C@H](O)CN[C@@H]2CCc3ccccc32)cc(N2CCCC2=O)c1 | 1020 nM
29 | CC(C)NCc1ccc(-c2cccc(NC(=O)c3ccc(C#N)cc3)c2)cc1 | 740 nM
30 | Cc1cc(N)nc2ccc(-c3ccc(CN)cc3)cc12 | 620 nM
31 | Cc1ccc(Oc2ccc(NC(=O)CNc3ccccc3N3CCCC3=O)cc2)cc1 | 370 nM
32 | CN(CCCCN)Cc1ccc(-c2ccc(Cl)cc2)cc1 | 880 nM
33 | Cc1[nH]c(/C=C2\C(=O)Nc3ccc(S(=O)(=O)Cc4c(Cl)cccc4Cl)cc32)c(C)c1C(=O)N1CCC[C@@H]1CN1CCCC1 | 720 nM
34 | CC(C)(C)NC(=O)COC(=O)c1c2c(nc3ccccc13)C(=Cc1ccc3c(c1)OCO3)CCC2 | 740 nM
35 | CC(C)(C)c1ccc(CNCCOc2ccc(Nc3nnc(-c4ccc(-c5ncc[nH]5)cc4)o3)c3ccccc23)cc1 | 140 nM
36 | O=S(=O)(NCCN1CCCC1)c1ccc(-c2ccc(CNCc3ccsc3)cc2)s1 | 830 nM
37 | O=C(N[C@H]1CCN(Cc2ccc(OCCCN3CCCCC3)cc2)C1)c1ccc2ccccc2c1 | 760 nM
38 | Cc1c(CNCCN2CCCCC2)c(C(=O)O)c(C)n1Cc1ccc(Cl)cc1 | 420 nM
39 | CCNc1c2ccc(Cl)cc2nc2ccc(OC)cc12 | 840 nM
40 | COc1ccc(NC(=O)/C=C/c2ccccc2Cl)cc1OCCN1CCC(Cc2cc3ccccc3[nH]2)CC1 | 900 nM
41 | CCc1nc2nc(C)cc(Nc3ccc(F)c(Cl)c3)n2n1 | 970 nM
42 | COc1ccc(OCCn2cc(C(=O)c3ccco3)c3ccccc32)cc1 | 770 nM
43 | COc1ccccc1-c1cccc(Nc2c(Nc3ccc(Cl)cc3)c(=O)c2=O)c1 | 880 nM
44 | CCNc1cc(C(=O)N[C@@H](Cc2ccccc2Cl)[C@H](O)CNC(C)CCCC(C)C)cc(N2CCCCS2(=O)=O)c1 (stereo partly specified) | 930 nM
45 | Cc1cccc2[nH]c(-c3cccc(-c4cccc(C(=O)NCc5nccn5C)c4)c3)nc12 | 530 nM
46 | O=C(Nc1ccc(Cl)c(C(F)(F)F)c1)N[C@H]1CCN(CCCCCNC(=O)[C@@H]2C[C@H]2c2ccc(Cl)c(Cl)c2)C1 | 1080 nM
47 | COCCOc1ccc(C(F)(F)F)cc1NC(=O)Cc1c(F)cccc1Cl | 1000 nM
48 | Cn1nccc1C(=O)NCCNCc1ccc(-c2cccc(-c3nc4ccc(F)cc4[nH]3)c2)cc1 | 220 nM

Row | SMILES | IC50
49 | Cc1cnc2ccc(NS(=O)(=O)c3sc4ccc(Cl)cc4c3C)cc2c1N1CCNCC1 | 810 nM
50 | Cc1cc(NN=Cc2ccc(F)cc2)c2cc(F)ccc2n1 | 640 nM
51 | CCOC(=O)c1cc(=O)c2ccc(OCC#N)cc2o1 | 1030 nM
52 | COC(=O)c1ccc(Nc2nccc(Nc3ccc(Oc4ccccc4)cc3)n2)cc1 | 1020 nM
53 | CC(C)COc1ccc(Cl)cc1Cc1ccc(-c2nc3ccc(Cl)cc3[nH]2)o1 | 930 nM
54 | Cc1noc(C)c1S(=O)(=O)N(C)Cc1ccc(-c2ccc(Cl)cc2)o1 | 360 nM
55 | C=C[C@H]1CN(CCCCCCC)CC[C@H]1CCNc1ccnc2ccc(OC)cc12 | 60 nM
56 | O=C(Nc1ccccc1)N(Cc1ccccc1-c1cccc(CNCc2ccc3c(c2)OCO3)c1)C1CCN(Cc2ccccc2)CC1 | 110 nM
57 | C1=CN(Cc2ccccc2)C=CC1=C1C=Nc2ccccc21 | 760 nM
58 | O=S(=O)(NCCN1CCCC1)c1cccc(-c2cccc(CNCCc3cccs3)c2)c1 | 750 nM
59 | CC(=O)Nc1ccc(C(=O)N2CCN(c3ccnc4cc(Cl)ccc34)CC2)cc1 | 910 nM
60 | CC(=O)Nc1ccc(C2NC(=O)NC(c3ccccc3)=C2c2nc3ccccc3s2)cc1 (stereo unspecified) | 1110 nM
61 | O=C(c1cc(C(=O)Nc2ccccc2F)c(=O)n(-c2ccccc2F)c1)c1cc(Cl)ccc1O | 710 nM
62 | CNc1ccc(CNCc2cccc(-c3ccc(-c4nc5ccc(C(F)(F)F)cc5[nH]4)cc3)c2)cc1 | 110 nM
63 | COc1c(C2CCN(CCCCNC(=O)c3ccc(-c4ccc(C#N)cc4)c(O)c3)CC2)ccc2c1CCCC2 | 200 nM
64 | CC(Cc1ccc(OCc2ccccc2)cc1)NCC(O)c1cccc(Cl)c1 (stereo unspecified) | 550 nM
65 | CSCCC(C(=O)O)N1C(=O)c2ccccc2C1=O (stereo unspecified) | 1030 nM
66 | CNC(=O)c1ccc2[nH]cc(C3CCN(CC4CCN(C(=O)/C=C/c5ccc(Cl)c(Cl)c5)CC4)CC3)c2c1 | 1520 nM
67 | N#Cc1cc(C(=O)Nc2ccccc2)c(N)nc1SCC(=O)Nc1ccc(Br)cc1 | 1100 nM
68 | CC(Cc1ccc(C(=O)N2CCN(C(=O)c3ccc(CC(C)NCCc4cccc(Cl)c4)cc3)CC2)cc1)NCCc1cccc(Cl)c1 (stereo unspecified) | 680 nM
69 | CC(C)(C)c1ccc(-c2csc(NC(=O)CC(c3ccccc3)c3ccccc3)n2)cc1 | 1150 nM
70 | CN(C)CCCOc1ccc(CN2CC[C@H](NC(=O)c3ccc(Cl)c(Cl)c3)C2)cc1Cl | 960 nM
71 | CN1C(=C2SC(=Nc3ccc4ncccc4c3)N(Cc3ccccc3)C2=O)Sc2ccc(Cl)cc21 | 1060 nM
72 | NC1CCN(Cc2ccc(-c3ccc(-c4nc5ccc(F)cc5[nH]4)cc3)cc2)C1 (stereo unspecified) | 180 nM

Row | SMILES | IC50
73 | CC[C@H]1CN2CC[C@H]1C[C@H]2[C@H](O)c1cc(-c2ccc(C)cc2)nc2ccc(OC)cc12 | 110 nM
74 | COc1cc(NC(=O)c2sc(-c3ccc(Cl)cc3)cc2NC(=O)CN2CC[C@@H](O)C2)ccc1OCCN1CCCC1 | 800 nM
75 | Cc1nc(-c2nc(NCCc3cnccn3)ncc2-c2ccsc2)sc1C | 880 nM
76 | CCOc1ccccc1C=CC(=O)Nc1ccc2nc(N3CCN(C)CC3)cc(C)c2c1 | 270 nM
77 | O=C(CC1NC(=O)c2ccccc21)Nc1ccc(-c2ccc(-c3nc4ccc(C(F)(F)F)cc4[nH]3)cc2)cc1 (stereo unspecified) | 470 nM
78 | O=C(NCCCCN1CC[C@@H]2c3cccc(O)c3CC[C@H]21)c1ccc(-c2ccccc2)cc1 | 1380 nM
79 | O=C(Nc1cccc(Cl)c1)N[C@H]1CCN(Cc2ccc(OCCCN3CCCCC3)cc2)C1 | 730 nM
80 | O=C(NCc1ccc(F)cc1)Nc1ccc(-c2ccc(-c3nc4ccccc4[nH]3)cc2)cc1 | 90 nM
81 | N#Cc1ccccc1Sc1ccccc1C(=O)Nc1ccc2ccccc2n1 | 510 nM
82 | CCn1c(C)c(C)c2cc(C(=O)Nc3ccon3)ccc21 | 730 nM
83 | c1ccc(-c2nc(Nc3ccncc3)sc2-c2ccccc2)cc1 | 810 nM
84 | COc1ccccc1N1CCN(C(C(=O)NCc2ccc3c(c2)OCO3)c2ccc(C)cc2)CC1 (stereo unspecified) | 980 nM
85 | Cn1cncc1C(=O)Nc1ccc(-c2cccc(-c3nc4ccc(C(F)(F)F)cc4[nH]3)c2)cc1 | 860 nM
86 | CC(C)Sc1nc2c(c(=O)n1CCc1ccccc1)C1(CCCCC1)Cc1ccccc1-2 | 1870 nM
87 | Cc1nnsc1C(=O)Nc1ccc(-c2cccc(-c3nc4ccc(F)cc4[nH]3)c2)cc1 | 770 nM
88 | CN1CCC(COC(=O)C(O)(c2ccccc2)c2ccccc2)C1 (stereo unspecified) | 1000 nM
89 | CCn1c(C=Cc2cc(Br)ccc2O)nc2ccccc2c1=O | 650 nM
90 | Cc1ccc(NC(=O)c2ccc(NCCCN(C)Cc3ccccc3)c([N+](=O)[O-])c2)cc1F | 700 nM
91 | COc1ccc(OCc2ccccn2)c(C2CCN(CCCCNC(=O)c3ccc(NC(=O)c4ccc(Cl)cc4)cc3)CC2)c1 | 760 nM
92 | COc1cc(F)c2ncc(Cl)c(CCN3CCC(NCc4ccc5c(c4)NC(=O)CO5)CC3)c2c1 | 230 nM
93 | COc1cc(Cl)c(C)cc1N(Cc1ccccc1-c1ccccc1)S(=O)(=O)c1ccc(C(F)(F)F)cc1 | 1050 nM
94 | Cc1ccccc1NC(=O)NC1CCN(CCCCCNC(=O)/C=C/c2ccc(Cl)c(Cl)c2)CC1 | 770 nM
95 | O=C(N[C@@H](Cc1ccccc1)C(=O)NCCN1CCOCC1)c1ccc(O)c(-c2ccc(Cl)c(Cl)c2)c1 | 920 nM
96 | O=C(Nc1ccc(Cl)c(Cl)c1)Nc1cc(C(F)(F)F)ccc1Cl | 1440 nM
